How the values were obtained:
[1] = Predicted plasma concentrations in PAH patients at 75 mg per day; format: in vivo, human; conditions: macitentan 75 mg per day; for predicted peak plasma concentration: PAH patients, based on PK Sub-study, assuming dose linearity; for expected free plasma concentration: taking into account protein binding
Description: Predicted peak plasma concentrations of macitentan and ACT-132577 in PAH patients at 75 mg per day dose are expected to be around 5 μM and 14 μM, respectively, based on the PK Sub-study and assuming dose linearity. […] It is not likely that these unbound concentrations of macitentan and ACT-132577 result in any inhibition of BCRP in the liver or kidney or induction of CYP3A4 enzyme in the liver.

[2] = system: ET receptors; conditions: cited from earlier work
[3] = system: CYP3A4; assay: CYP3A4 induction in human hepatocytes; format: in vitro ADME
[4] = Drug-drug interaction in general
[5] = cited from earlier work
[6] = target: T1, human PXR (Homo sapiens, UniProt O75469); assay: Activation of human PXR; format: cell-based
T1 sequence (O75469 1-434): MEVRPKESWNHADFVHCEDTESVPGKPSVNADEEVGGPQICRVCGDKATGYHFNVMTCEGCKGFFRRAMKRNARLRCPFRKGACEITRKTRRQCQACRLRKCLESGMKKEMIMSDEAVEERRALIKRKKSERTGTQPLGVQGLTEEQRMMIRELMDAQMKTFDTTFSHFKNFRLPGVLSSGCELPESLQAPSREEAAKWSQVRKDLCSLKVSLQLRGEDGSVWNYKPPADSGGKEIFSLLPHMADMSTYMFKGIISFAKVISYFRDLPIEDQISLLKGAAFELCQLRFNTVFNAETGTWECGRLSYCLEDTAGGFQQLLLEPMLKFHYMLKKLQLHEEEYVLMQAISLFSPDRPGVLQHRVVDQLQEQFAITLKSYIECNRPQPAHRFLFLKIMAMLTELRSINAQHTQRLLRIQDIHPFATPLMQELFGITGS

[7] = continuous IV infusion, patients with PVR greater than 1200 dynes·s·cm^−5 before PEA surgery; cited from earlier work
[8] = Effect of macitentan on decrease in hemoglobin concentration, pooled Phase I studies, Emax fit; format: in vivo, human; conditions: healthy volunteers
Description: Hemoglobin measurements were pooled from 3 Phase I clinical studies in healthy volunteers: • Study AC-055-102: Investigation of the PK, PD, safety and tolerability of macitentan in male subjects (the study protocol is described in the following publication: Sidharta et al., Safety, tolerability, pharmacokinetics, and pharmacodynamics of macitentan, an endothelin receptor antagonist, in an ascending multiple-dose study in healthy subjects. J. Clin. Pharmacol. (2013), 53(11), 1131-1138) • Study AC-055-116: Investigation of the PK, PD, safety and tolerability of macitentan in male Japanese subjects (the study protocol is described in the following publication: Yokoyama et al., Tolerability, Safety, Pharmacokinetics, and Pharmacodynamics of Macitentan, a New Endothelin Receptor Antagonist, in Healthy Japanese Male Subjects. Rinsho yakuri/Japanese Journal of Clinical Pharmacology and Therapeutics (2016), 47, 143-150) • Study AC-055-117: Investigation of the PK, PD, safety and tolerability of macitentan in male Korean subjects (the study protocol is described in the following publication: Ahn et al., Pharmacokinetic-pharmacodynamic relationships of macitentan, a new endothelin receptor antagonist, after multiple dosing in healthy Korean subjects, Am. […]
Hemoglobin concentrations measured in the morning of Day 11 of macitentan treatment and at baseline on Day −1 were used in the analysis. […]

[9] = rats, cited from earlier work
[10] = target: T2, BCRP transporters (Homo sapiens, UniProt Q9UNQ0); assay: Effect of macitentan on rosuvastatin pharmacokinetics; format: in vivo; conditions: macitentan 10 mg per day o.d.
T2 construct: BCRP is an efflux pump located in the gut, liver canalicular membrane, and kidney; from tissue; host or cells: in vivo: gut, liver canalicular membrane, kidney
T2 sequence (Q9UNQ0 1-655): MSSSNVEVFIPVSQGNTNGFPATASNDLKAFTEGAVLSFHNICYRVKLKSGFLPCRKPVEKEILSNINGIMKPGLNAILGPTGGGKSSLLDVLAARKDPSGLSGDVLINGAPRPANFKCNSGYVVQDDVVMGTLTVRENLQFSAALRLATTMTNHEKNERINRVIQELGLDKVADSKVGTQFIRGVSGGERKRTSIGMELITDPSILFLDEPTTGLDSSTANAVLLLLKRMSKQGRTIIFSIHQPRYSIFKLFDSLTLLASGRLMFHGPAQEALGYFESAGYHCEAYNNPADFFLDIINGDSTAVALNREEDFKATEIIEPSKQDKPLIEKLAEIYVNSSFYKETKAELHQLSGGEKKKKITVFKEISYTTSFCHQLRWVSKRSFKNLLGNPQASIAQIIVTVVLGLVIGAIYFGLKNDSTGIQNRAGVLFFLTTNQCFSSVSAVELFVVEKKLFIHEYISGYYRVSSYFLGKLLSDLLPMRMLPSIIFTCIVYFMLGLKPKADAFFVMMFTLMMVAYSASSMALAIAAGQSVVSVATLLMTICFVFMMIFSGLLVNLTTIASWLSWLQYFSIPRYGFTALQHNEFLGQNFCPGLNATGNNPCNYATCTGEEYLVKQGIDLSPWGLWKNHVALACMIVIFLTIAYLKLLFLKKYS
Description: BCRP is an efflux pump located in the gut, liver canalicular membrane, and kidney, and is exposed to intracellular drug concentrations in the liver and the kidney.

[11] = system: plasma ET-1; conditions: healthy human subjects; 1, 3, 10, 30 mg; cited from earlier work

Row | Compound | predicted peak plasma concentration [1] | expected free plasma concentration [1] [µM] | affinity for the ET receptors relative to parent compound [2] | CYP3A4 mRNA and enzyme activity [3] | drug-drug interaction [4] | time to peak plasma concentration ([5]; after the first dose of macitentan) | half-life ([5]; in humans) | plasma concentrations relative to macitentan ([5]; in vivo) | EC50 [6] [µM] | effect on preoperative cardiac output and PVR [7] | dose at which the effect on hemoglobin decrease plateaus [8] [mg] | maximum effect on hemoglobin decrease (Emax) ([8]; Day 11 vs baseline Day −1) | dose of maximal or near-maximal effect ([9]; EMA Assessment Report) [mg/kg] | maximal effective dose [9] [mg/kg] | effect on the pharmacokinetics of 1 mg rosuvastatin [10] | absorption into the plasma ([5]; in humans) | time to steady state ([5]; in humans) | plasma ET-1 concentrations at steady-state [11]
1 | NS(=O)(=O)Nc1ncnc(OCCOc2ncc(Br)cn2)c1-c1ccc(Br)cc1 [ACT-132577] | ~14 µM | 0.07 | lower affinity | concentration-dependent increases | No Drug-Drug Interaction has been observed | about 30 hours | approximately 48 hours | higher plasma concentrations than macitentan | 7.2 to 8.7 |  |  |  |  |  |  |  |  | 
2 | CCCCC[C@H](O)/C=C/[C@@H]1[C@H]2C/C(=C/CCCC(=O)O)O[C@H]2C[C@H]1O [epoprostenol] |  |  |  |  |  |  |  |  |  | may significantly increase preoperative cardiac output and reduces PVR |  |  |  |  |  |  |  | 
3 | CCCNS(=O)(=O)Nc1ncnc(OCCOc2ncc(Br)cn2)c1-c1ccc(Br)cc1 [macitentan, propylsulfamic acid [5-(4-bromo-phenyl)-6-[2-(5-bromo-pyrimidin-2-yloxy)-ethoxy]-pyrimidin-4-yl]-amide] | around 5 μM | 0.02 |  | concentration-dependent increases | No Drug-Drug Interaction has been observed |  | about 16 hours |  | 1.1 to 1.2 |  | 10 | around 1.23 g/dL | 10 | 30 | has not shown any effect | absorbed slowly | by the third day of administration | no further increase beyond the 10 mg oral dose

Reference: patent US11612600B2, “Pharmaceutical composition comprising macitentan for the treatment of chronic thromboembolic pulmonary hypertension” (ACTELION PHARMACEUTICALS LTD, priority 2019, dated 2023)
